From patent US20160220557A1, “USE OF ACETYL-COA CARBOXYLASE INHIBITORS FOR TREATING ACNE VULGARIS” (PFIZER INC., priority 2013, published 2016)

How the values were obtained:
[1] = test system: SZ95 human sebocyte cells; assay: Inhibition of de novo lipogenesis (14C-acetate incorporation) in cultured human sebocytes; format: cell-based; settings: for IC50: Homo sapiens, SZ95 sebocytes, 14C-acetate incorporation into lipids relative to vehicle, read-out: C9302E Sebocyte IC50
Protocol: SZ95 sebocytes were grown in Human Sebocyte Growth Medium (HSGM) (Sebomed® medium (Biochrom: F8205) supplemented with 10% heat-inactivated fetal bovine serum, 1% penicillin/streptomycin, 1 mM calcium chloride and 5 ng/mL recombinant human epidermal growth factor (Life Tech: PHG0311)). At 90% confluence, cells were washed three times with PBS and then detached with 0.05% Trypsin-EDTA. Cells were centrifuged and resuspended in HSGM containing 10% charcoal-stripped serum (Life Tech: 12676-029). Cells were then plated in 24-well plates at a density of 0.25×10^6 cells/well and were incubated overnight to enable cell adherence to the culture plate.
Cells were treated with a dose response of compound, and each dose was assayed in triplicate. Briefly, compounds were dissolved in DMSO stocks and diluted 1:1000 into charcoal-stripped media. 0.1% DMSO without compound was used as the vehicle control. After a 1 hour preincubation with compound or vehicle, 0.25 μCi ^14C-acetic acid (American Radiolabeled Chemicals: ARC0158B) was added to each well. Plates were then incubated for an additional two hours. At the end of the incubation period, cells were removed from incubator, placed on ice, and then washed twice with ice-cold PBS to remove free ^14C-acetic acid. Plates were sealed and stored at −20° C. until analysis.
Plates were shaken for 1 hour at room temperature to induce lysis. Lysates were transferred to individual 1.5 mL polypropylene tubes, and wells were washed with 175 μl of PBS, which was added to lysates. 450 μl of a 1:1 (v/v) chloroform:methanol solution was then added to each tube, and then all tubes were vortexed for 10 seconds and centrifuged at 20,000×g for 5 minutes at room temperature to separate aqueous from organic phase. A 25 μl aliquot was removed from the bottom organic layer of each sample and added to 6 mL OptiPhase supermix (PerkinElmer: 1200-439) scintillation fluid. Counts of ^14C incorporated into lipids were assessed by scintillation counting. DNL (counts of ^14C incorporated into lipids) was expressed for compound treated cells relative to DNL in the vehicle control treated cells for determination of EC50 values. For a subset of the compounds tested, a second aliquot (3×35 μl) of the organic layer of each sample was removed and applied to a TLC lane (Analtech Silica Gel G Plates). Radiolabeled lipids were resolved using a 2-solvent system. Solvent 1 contained a 100:100:100:40:36 mixture of ethyl acetate:isopropyl alcohol:CHCl3:MeOH:0.25% KCl and solvent 2 a 70:27:3 hexane:diethyl ether:acetic acid mix. The TLC plate was dried under nitrogen for 30 minutes and [^14C]-calibrators added to a vacant lane. Bands were visualized and quantitated using a Molecular Dynamics' Storm 860 Phosphorimager system following 18-36 hours exposure to a Phosphorimager screen.

[2] = biological target: hACC1 (Homo sapiens, UniProt Q13085); assay: Radiometric ACC1 inhibition assay; format: biochemical
[3] = biological target: hACC2 (Homo sapiens, UniProt O00763); assay: Radiometric ACC2 inhibition assay; format: biochemical
[4] = biological target: T1, CYP2C8 (Homo sapiens, UniProt P10632); assay: P450 inhibition in liver microsomes with probe substrates; format: in vitro ADME
T1 construct: from tissue; host or cells: liver microsomes
T1 sequence (P10632 1-490): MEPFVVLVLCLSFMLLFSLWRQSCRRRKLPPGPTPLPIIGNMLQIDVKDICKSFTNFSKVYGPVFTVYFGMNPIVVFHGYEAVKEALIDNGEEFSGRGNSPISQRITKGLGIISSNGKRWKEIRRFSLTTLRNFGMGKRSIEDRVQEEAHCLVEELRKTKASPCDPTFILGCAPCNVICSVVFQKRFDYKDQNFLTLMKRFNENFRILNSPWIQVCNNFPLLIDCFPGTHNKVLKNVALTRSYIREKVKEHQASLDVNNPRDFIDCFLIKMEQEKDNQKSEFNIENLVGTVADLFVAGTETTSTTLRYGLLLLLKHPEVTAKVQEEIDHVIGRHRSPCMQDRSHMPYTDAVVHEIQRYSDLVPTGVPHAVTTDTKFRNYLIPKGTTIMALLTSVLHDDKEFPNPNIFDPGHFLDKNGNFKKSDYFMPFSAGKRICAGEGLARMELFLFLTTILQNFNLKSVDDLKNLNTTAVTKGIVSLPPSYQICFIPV

[5] = in vivo
[6] = biological target: CYP3A (Homo sapiens, UniProt P08684); assay: in vitro; settings: microsomes
[7] = clinical; settings: human, in vivo, po
[8] = test system: ear skin malonyl-CoA; assay: Ear skin malonyl-CoA levels in Syrian hamsters; format: in vivo, Syrian hamster; settings: topical 100 mg/ml (5 ul/ear), single dose, one hour after treatment
Protocol: Male Syrian gold Hamster at ˜10 weeks were maintained adlibitum on standard hamster chow and water. Example 3 for topical delivery was prepared as a solution in a vehicle consisting of 70:30 (Ethanol:propylene glycol) at a concentration of 100 mg/ml. Topical administration of a single dose (5 ul/ear) was applied to hamster ears with a pipette (2-10 ul) tip adhering to 2 minute intervals following the dosing order. The dosing timing allowed for the formulation to spread evenly over an approximate 1 sq cm area and absorb/dry prior to returning the animal to the cage. […] One hour after dose administration animals were sacrificed by CO2 asphyxiation.
Briefly, ear skin samples were prepared for malonyl-CoA analysis in the following manner. One 8 mm distal biopsy punch (using a 8 mm diameter Sklar Tru-punch—Sklar Instruments) (2 per animal) was taken just above the anatomical “V” in the aural cartilage to normalize sample area. The punch was then split into 2 layers (anterior and posterior). […]
Frozen tissues were homogenized in 1 mL of 5% ice cold trichloroacetic acid using a polytron in a 2 mL polypropylene centrifuge tube. […] Tissue malonyl-CoA levels were determined by LCMS by the Metabolomics Laboratory Sanford-Burnham Medical Research Institute (Orlando, […]). Hamster ear skin malonyl-CoA levels were expressed as the percent of the vehicle control and are plotted in FIG. 6.

hACC2, sequence (O00763 whole entry): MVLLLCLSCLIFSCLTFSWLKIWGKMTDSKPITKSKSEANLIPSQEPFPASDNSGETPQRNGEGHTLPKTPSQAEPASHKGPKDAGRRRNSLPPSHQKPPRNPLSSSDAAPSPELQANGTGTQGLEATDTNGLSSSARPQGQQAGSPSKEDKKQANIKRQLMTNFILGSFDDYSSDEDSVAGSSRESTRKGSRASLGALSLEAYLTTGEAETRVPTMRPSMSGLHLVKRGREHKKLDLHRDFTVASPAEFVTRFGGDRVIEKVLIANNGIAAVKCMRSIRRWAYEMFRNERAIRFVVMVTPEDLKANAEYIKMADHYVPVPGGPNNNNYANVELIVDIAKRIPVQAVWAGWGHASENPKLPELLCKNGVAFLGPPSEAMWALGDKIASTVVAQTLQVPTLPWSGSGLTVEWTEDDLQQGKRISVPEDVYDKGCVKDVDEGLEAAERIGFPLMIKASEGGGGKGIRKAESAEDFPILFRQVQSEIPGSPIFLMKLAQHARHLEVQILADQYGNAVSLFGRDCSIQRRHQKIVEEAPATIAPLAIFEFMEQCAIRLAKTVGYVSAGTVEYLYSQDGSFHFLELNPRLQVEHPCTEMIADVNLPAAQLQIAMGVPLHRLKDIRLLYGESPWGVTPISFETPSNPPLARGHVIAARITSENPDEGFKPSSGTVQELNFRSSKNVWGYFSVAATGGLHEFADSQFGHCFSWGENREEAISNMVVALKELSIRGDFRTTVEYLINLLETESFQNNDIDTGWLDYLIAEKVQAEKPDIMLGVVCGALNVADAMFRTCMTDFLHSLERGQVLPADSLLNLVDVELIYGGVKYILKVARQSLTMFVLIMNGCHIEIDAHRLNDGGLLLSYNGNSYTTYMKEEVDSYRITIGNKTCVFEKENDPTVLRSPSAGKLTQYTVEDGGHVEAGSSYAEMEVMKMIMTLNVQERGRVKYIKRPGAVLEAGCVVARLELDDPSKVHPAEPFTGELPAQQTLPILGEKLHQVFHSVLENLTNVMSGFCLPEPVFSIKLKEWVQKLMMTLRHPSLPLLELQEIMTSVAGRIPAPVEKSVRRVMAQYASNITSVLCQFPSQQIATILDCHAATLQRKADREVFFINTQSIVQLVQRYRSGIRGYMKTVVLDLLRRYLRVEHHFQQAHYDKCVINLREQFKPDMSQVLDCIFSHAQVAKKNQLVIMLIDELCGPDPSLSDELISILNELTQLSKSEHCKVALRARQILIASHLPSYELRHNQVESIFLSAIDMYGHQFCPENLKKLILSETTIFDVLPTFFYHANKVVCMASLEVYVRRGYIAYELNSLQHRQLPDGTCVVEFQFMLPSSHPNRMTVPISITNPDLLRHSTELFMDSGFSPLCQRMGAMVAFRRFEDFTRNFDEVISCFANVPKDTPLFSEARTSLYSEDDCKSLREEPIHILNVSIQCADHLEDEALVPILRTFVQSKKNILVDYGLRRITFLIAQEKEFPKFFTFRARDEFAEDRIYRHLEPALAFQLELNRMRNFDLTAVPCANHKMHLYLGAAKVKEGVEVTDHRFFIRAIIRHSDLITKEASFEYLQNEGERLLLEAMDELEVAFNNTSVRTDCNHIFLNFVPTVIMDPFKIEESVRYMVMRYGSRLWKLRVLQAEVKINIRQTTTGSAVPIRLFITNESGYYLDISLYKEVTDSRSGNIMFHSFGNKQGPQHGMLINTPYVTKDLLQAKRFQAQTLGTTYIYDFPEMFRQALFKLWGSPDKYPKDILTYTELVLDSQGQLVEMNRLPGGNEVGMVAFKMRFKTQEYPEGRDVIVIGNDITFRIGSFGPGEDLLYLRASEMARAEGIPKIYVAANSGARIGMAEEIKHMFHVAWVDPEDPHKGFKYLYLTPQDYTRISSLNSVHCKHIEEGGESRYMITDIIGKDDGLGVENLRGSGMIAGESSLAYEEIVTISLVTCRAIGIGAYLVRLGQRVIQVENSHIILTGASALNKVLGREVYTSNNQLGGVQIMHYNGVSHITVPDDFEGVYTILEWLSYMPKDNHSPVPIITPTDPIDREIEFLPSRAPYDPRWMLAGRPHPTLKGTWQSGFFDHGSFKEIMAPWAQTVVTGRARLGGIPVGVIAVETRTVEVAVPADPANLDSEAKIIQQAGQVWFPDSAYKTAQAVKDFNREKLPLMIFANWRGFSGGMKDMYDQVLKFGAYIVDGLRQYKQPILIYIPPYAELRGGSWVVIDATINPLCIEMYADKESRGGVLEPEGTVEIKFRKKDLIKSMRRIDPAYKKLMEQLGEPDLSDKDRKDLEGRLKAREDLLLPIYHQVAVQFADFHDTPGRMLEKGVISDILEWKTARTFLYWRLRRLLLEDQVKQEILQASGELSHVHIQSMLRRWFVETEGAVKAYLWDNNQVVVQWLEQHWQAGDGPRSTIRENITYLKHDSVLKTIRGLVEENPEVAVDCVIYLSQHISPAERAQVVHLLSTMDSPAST
CYP3A, sequence (P08684 2-503): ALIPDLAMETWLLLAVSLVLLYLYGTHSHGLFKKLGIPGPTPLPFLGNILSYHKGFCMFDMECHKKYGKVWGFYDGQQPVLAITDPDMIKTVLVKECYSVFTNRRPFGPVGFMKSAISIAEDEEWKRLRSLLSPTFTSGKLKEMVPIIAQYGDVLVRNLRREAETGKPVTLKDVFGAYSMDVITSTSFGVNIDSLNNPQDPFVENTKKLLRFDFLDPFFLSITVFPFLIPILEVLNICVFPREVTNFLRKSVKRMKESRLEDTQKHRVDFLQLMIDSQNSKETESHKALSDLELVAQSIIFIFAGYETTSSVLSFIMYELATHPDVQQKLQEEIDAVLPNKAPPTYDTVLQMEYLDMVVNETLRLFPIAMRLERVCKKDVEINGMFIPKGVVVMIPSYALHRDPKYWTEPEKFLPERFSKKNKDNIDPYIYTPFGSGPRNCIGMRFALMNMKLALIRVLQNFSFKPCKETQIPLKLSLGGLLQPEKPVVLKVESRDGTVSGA

SMILES | IC50 [1] [nM] | IC50 [2] [nM] | IC50 [3] [nM] | IC50 [4] [µM] | exposures (AUC and Cmax) vs. dose [5] | effect of food on absorption ([5]; po) | frequency of adverse events vs. dose and duration ([5]; po) | IC50 [6] [µM] | half-life [7] [min] | incorporation of 14C-acetate into free cholesterol ([1]; SZ95 cells, TLC, vs. vehicle) | incorporation of 14C-acetate into SZ95 cell lipid species containing or comprised of fatty acids ([1]; TLC, cholesterol esters, triglycerides, free fatty acids, diglycerides, monoglyceride, phospholipid, vs. vehicle) | suppression of hamster ear skin malonyl-CoA relative to vehicle [8] [%]
Cc1nc2ccc(C(=O)N3CCC4(CC3)CC(=O)c3c(cnn3C(C)C)C4)cc2[nH]1 [Example 1, 1-isopropyl-1′-(2-methyl-1H-benzo[d]imidazole-5-carbonyl)-4,6-dihydrospiro[indazole-5,4′-piperidin]-7(1H)-one] | 679 | 11 | 27 | > 30 | increased dose-proportionally | modestly decreased the rate but not the extent | no dose- or duration-related increase | > 30 | 600 to 780 | – | – | –
CC(C)n1ncc2c1C(=O)CC1(CCN(C(=O)c3ccc4ccc(N)nc4c3)CC1)C2 [Example 3, 1′-(2-aminoquinoline-7-carbonyl)-1-isopropyl-4,6-dihydrospiro[indazole-5,4′-piperidin]-7(1H)-one] | 90 | 5 | 5 | – | – | – | – | – | – | did not alter | clear inhibition | 87
